Source: US12171740B2, “Compositions and methods for treating allergic inflammatory conditions” (CHILDREN'S HOSPITAL MEDICAL CENTER, priority 2016, dated 2024)
“Also recorded” adds a separate entry of the source. Blank lines part the entries; values can stand above or below the molecule they belong to.

Legend:
[1] = test system: serine proteinases with trypsin-like activity; assay: Trypsin-like / proteolytic activity in supernatants of SPINK7-depleted EPC2 cells; format: cell-based, human; conditions: following ALI differentiation
Experimental: (§1) FIG. 10A is a bar graph showing quantification of uPA activity in supernatants derived from (NSC) or SPINK7-depleted EPC2 cells following during ALI differentiation (day 7-9). FIG. 10B is a bar graph showing quantification of the activity of serine proteinases with trypsin-like activity in supernatants derived from (NSC) or SPINK7-depleted EPC2 cells and primary esophageal cells following ALI differentiation. Proteinase activity in the supernatants is calculated as nM concentrations according to standard dilutions of recombinant hKLK5. In vitro activity assays of KLK5 (FIG. 10C) KLK7 (FIG. 10D) and KLK11 (FIG. 10E) in the presence of the indicated concentrations of SPINK7. Data are represented as the mean±s.e.m.
FIG. 12A is a bar graph showing FPKM values of uPA in the esophagus of EoE patients and controls. FIG. 12B is a bar graph showing analysis of the uPA proteolytic activity (active units—AU) in esophageal biopsies from 6 normal and 6 EoE patients. […] FIG. 12D is a bar graph showing quantification of trypsin-like activity in supernatants derived from NSC or SPINK7-depleted EPC2 cells that were treated with A1AT or a vehicle following ALI differentiation. […]
The known SPINK7 target uPA (Cheng, X., Lu, S. H. & Cui, Y. Cancer letters 290, 87-95 (2010), and Huang, G. et al. Carcinogenesis 28, 2274-2281(2007)) was analyzed. […]

[2] = test system: SPINK7-depleted EPC2 cells; assay: Barrier function (electrical resistance) of SPINK7-depleted EPC2 cells during ALI differentiation; format: cell-based, human; conditions: treated with A1AT during ALI differentiation, Day 7
Experimental: (§2) FIG. 12A is a bar graph showing FPKM values of uPA in the esophagus of EoE patients and controls. FIG. 12B is a bar graph showing analysis of the uPA proteolytic activity (active units—AU) in esophageal biopsies from 6 normal and 6 EoE patients. […] FIG. 12D is a bar graph showing quantification of trypsin-like activity in supernatants derived from NSC or SPINK7-depleted EPC2 cells that were treated with A1AT or a vehicle following ALI differentiation. FIG. 12E are electrical resistance measurements of NSC or SPINK7-depleted EPC2 cells that were treated with A1AT or a vehicle during ALI differentiation (Day 7). FIG. 12F are H&E staining images of NSC or SPINK7-depleted EPC2 cells that were treated with A1AT or a vehicle after ALI differentiation (Day 14)-add. FIG. 12G are images of co-immunofluorescence staining of E-cadherin and Filaggrin of NSC or SPINK7-depleted EPC2 cells that were treated with A1AT or a vehicle following ALI differentiation.
Paracellular and transcellular permeability of the ALI cultured cells were analyzed. […] Transepithelial electrical resistance (A) was measured from NSC and SPINK7-depleted EPC2 cells measured at day 7 and 8 during ALI differentiation (data not shown; data were representative of four experiments performed in triplicate and are represented as the mean±Sd). […]

[3] = test system: SPINK7-depleted EPC2 cells; assay: H&E staining of SPINK7-depleted EPC2 cells after ALI differentiation (epithelial integrity); format: cell-based, human; conditions: ALI differentiation Day 14
Experimental: as §2
(§3) To extend the potential benefit of A1AT, its ability to restore the epithelial changes induced by SPINK7 loss was […]. […] Consistent with these findings, A1AT administration increased filaggrin expression (FIG. 12G)

Filaggrin = assay: Co-immunofluorescence staining of filaggrin in SPINK7-depleted EPC2 cells; format: cell-based, human; conditions: following ALI differentiation
Experimental: as §2, §3

KLK5 [4] = molecular target: T1, KLK5 (Homo sapiens, UniProt Q9Y337); assay: Inhibition of KLK5 by organic compounds (dose response); format: biochemical
T1 sequence (Q9Y337 23-293): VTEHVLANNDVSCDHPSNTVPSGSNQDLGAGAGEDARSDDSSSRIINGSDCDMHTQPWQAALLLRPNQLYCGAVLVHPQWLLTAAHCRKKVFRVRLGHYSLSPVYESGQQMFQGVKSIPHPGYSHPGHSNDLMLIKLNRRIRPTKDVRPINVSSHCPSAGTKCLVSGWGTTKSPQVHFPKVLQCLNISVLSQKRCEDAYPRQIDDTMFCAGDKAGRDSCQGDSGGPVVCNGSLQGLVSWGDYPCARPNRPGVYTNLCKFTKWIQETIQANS
Experimental: FIGS. 14A-14B show the effect of organic compounds on KLK5 activity. FIG. 14A is a dose response curve for 3-(3-chlorophenyl) carboxy-7-hydroxymethyl coumarin. FIG. 14B is a dose response curve for 3-carboxy-7-hydroxymethyl coumarin.
Two organic compounds were tested for their inhibition of KLK5.

KLK5 [5] = molecular target: T1, KLK5; assay: In vitro KLK5 activity assay in the presence of SPINK7; format: biochemical
Experimental: as §1

KLK7 = KLK7 (Homo sapiens, UniProt P49862); assay: In vitro KLK7 activity assay in the presence of SPINK7; format: biochemical
Sequence of KLK7 (P49862 30-253): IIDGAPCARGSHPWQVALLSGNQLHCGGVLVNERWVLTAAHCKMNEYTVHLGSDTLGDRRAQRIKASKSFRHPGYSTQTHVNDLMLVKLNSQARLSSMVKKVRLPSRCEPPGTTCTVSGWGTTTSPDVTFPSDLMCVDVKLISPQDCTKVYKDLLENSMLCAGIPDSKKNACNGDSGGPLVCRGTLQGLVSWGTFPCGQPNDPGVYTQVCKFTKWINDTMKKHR
Experimental: as §1

KLK11 = molecular target: T2, KLK11 (Homo sapiens, UniProt Q9UBX7); assay: In vitro KLK11 activity assay in the presence of SPINK7; format: biochemical
T2 sequence (Q9UBX7 54-282): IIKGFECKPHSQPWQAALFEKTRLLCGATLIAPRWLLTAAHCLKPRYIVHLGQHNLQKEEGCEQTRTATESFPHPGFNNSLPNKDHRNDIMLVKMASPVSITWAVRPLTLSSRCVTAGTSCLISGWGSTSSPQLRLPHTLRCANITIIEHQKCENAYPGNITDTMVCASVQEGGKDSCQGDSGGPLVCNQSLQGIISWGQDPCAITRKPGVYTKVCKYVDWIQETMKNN
Experimental: as §1

uPA = uPA (Homo sapiens, UniProt P00749); assay: uPA proteolytic activity inhibition by SPINK7; format: biochemical; conditions: data not shown
Experimental: The known SPINK7 target uPA (Cheng, X., Lu, S. H. & Cui, Y. Cancer letters 290, 87-95 (2010), and Huang, G. et al. Carcinogenesis 28, 2274-2281(2007)) was analyzed. […] An increased proteolytic activity using the broad trypsin-like activity substrate Val-Pro-Arg (FIG. 10B) was observed.

Molecule: A1AT: serine proteinase inhibitor alpha-1 anti-trypsin, administered to SPINK7-silenced cells [Compound A1AT]
trypsin-like activity of supernatant of SPINK7 silenced cells [1]: inhibited
barrier function (electrical resistance) [2]: dose-dependent ability to improve barrier function
epithelial integrity (inter-cellular spaces) [3]: decreased inter-cellular spaces
filaggrin expression (Filaggrin): increased

IC50 (KLK5 [4]): 52000 ± 12000 nM
type of KLK5 inhibition (reversibility) (KLK5 [4]): non reversible inhibitors
Molecule: 3-(3-chlorophenyl) carboxy-7-hydroxymethyl coumarin [Compound I]

IC50 (KLK5 [4]): 83 ± 8 nM
type of KLK5 inhibition (reversibility) (KLK5 [4]): non reversible inhibitors
Molecule: O=C(O)c1cc2ccc(CO)cc2oc1=O [Compound II, 3-carboxy-7-hydroxymethyl coumarin]

inhibition of KLK5 proteolytic activity (KLK5 [5]; in vitro): inhibited
Ki (KLK5 [5]; mean±SD, dose-dependent, read-out: Ki, inhibition of KLK5 proteolytic activity): 132 ± 108 nM
inhibition of KLK7 (KLK7): did not inhibit; also recorded: not KLK7
inhibition of KLK11 (KLK11): did not inhibit
inhibition of uPA proteolytic activity (uPA): directly inhibited
B1: SPINK7: serine proteinase inhibitor kazal-type 7 protein, tested in vitro against KLK5, KLK7, KLK11 and uPA (protein, UniProt P58062 20-85, looked up)
Serine protease inhibitor …: SEAASLSPKKVDCSIYKKYPVVAIPCPITYLPVCGSDYITYGNECHLCTESLKSNGRVQFLHDGSC
